From PMC7707092, “Discovery and characterization of ORM‐11372, a novel inhibitor of the sodium‐calcium exchanger with positive inotropic activity” (British Journal of Pharmacology, 2020)
Converted amounts (≈) assume the structure as drawn. Like-named read-outs stand apart in the source and are kept apart here.

Legend:
human NCX 1.1 = molecular target: T1, human NCX 1.1 (Homo sapiens, UniProt P32418); assay: Fluorescence screening assay for hNCX 1.1 inhibition (reverse mode, Sf9 cells); assay type: cell-based; settings: Sf9 cells expressing human NCX1.1, reverse mode, fluorescence; n=3 assays
T1 construct: expressed in transfected cells
Method: Spodoptera frugiperda (Sf9; RRID:CVCL_0549) cells are widely used for the transient and stable expression of recombinant proteins. Here, Sf9 cells were stably transfected with human NCX 1.1 and maintained in spinner flasks with insect cell culture medium (TNM‐FH), supplemented with 10% FBS, antibiotic–antimycotic solution, and 50 μg·ml^−1 of blasticidin at 28°C in a non‐humidified, CO2‐free atmosphere. The Sf9 cell suspension was subcultured three times a week.
NCX reverse mode activity was stimulated via a 50% dilution of the extracellular Na^+ level using the internal pipettor of FLEXstation, a fluorescence imaging plate reader (Molecular Devices, USA), while simultaneously monitoring intracellular calcium levels. After dilution, the concentration of other ions remained the same, but Na^+ concentration was diluted to the half of original concentration of 172 to 86 mM. For Sf9 insect cells, normal extracellular Na^+ ion concentration is 172 mM. Typically, 50 μl of a solution containing 150,000–200,000 Sf9–NCX cells was loaded onto each well of a 96‐well plate. Cells were preincubated with the intracellular calcium dye Fluo‐4 and Fluo‐6, and the concentrations of the test compound (three replicates) were determined for about 1 h at room temperature before experimentation. The extracellular solution contained (in mM) 172 NaCl, 10 HEPES, 1 CaCl2, 1.2 MgCl2, 0.33 NaH2PO4, 5 glucose, and 5 probenecid. The pH was adjusted to 7.4 with NaOH. The extracellular Na^+ was diluted by the addition of a Na^+‐free extracellular solution (containing in mM: 147 N‐methyl‐D‐glucamine (NMDG), 10 HEPES, 1 CaCl2, 1.2 MgCl2, 0.33 NaH2PO4, and 5 glucose with the pH adjusted by HCl to 7.4)‐induced robust and reproducible elevation of intracellular calcium. The osmolarity of both solutions was adjusted to 340–355 mOsm in order to match the Sf9 cell media osmolarity. In each plate, the IC50 determination for each test compound was based on relative fluorescence changes in comparison with control and 5‐mM nickel acetate‐induced NCX inhibition.

hNCX1 = hNCX1 (Homo sapiens, UniProt P32418); assay: Confirmatory fluorescence assay for hNCX1 inhibition (forward mode, HEK293 cells, Charles River); assay type: cell-based
Method: A confirmatory hNCX1 inhibition assay was performed in Charles River Laboratories, Cleveland. Briefly, HEK293 cells stably expressing hNCX1 were plated in 384‐well black wall, clear‐bottom microtitre plates and the next day loaded with Fluo‐8 for 30 min at 37°C. A plate was inserted into a FLIPR^TETRA, and a baseline was recorded during a preincubation period where test compound or vehicle in a Na^+‐free HB‐PS containing thapsigargin (6 μM) and […] (30 μM) was added to each well for ~5 min. Next, the NCX1 stimulation period was recorded in which Na^+‐containing HB‐PS (with 2‐μM thapsigargin and 10‐μM FCCP) was added. The experiments were performed at room temperature. The kinetic data generated were reduced for each well to maximum relative fluorescence units (RFU) minus minimum RFU after subtracting bias based on the first sample. The mean of the max–min RFU values during the stimulation period for the 3–4 replicates at each concentration on a plate was then plotted versus concentration and fitted to a Hill equation.

Solubility = assay type: physicochemical; settings: pH 7.4 phosphate buffer
NCX [1] = system: NCX; parameters: method as in ref 1 (a number printed in a supplementary file, which may have a reference list of its own: not looked up in the article's list); settings: Rat, cited from earlier work
NCX [2] = system: NCX; parameters: method as in ref 1 (a number printed in a supplementary file, which may have a reference list of its own: not looked up in the article's list); settings: Rabbit, cited from earlier work
NCX [3] = system: NCX; parameters: method as in ref 9 (a number printed in a supplementary file, which may have a reference list of its own: not looked up in the article's list); settings: SH-SY5Y neuron, cited from earlier work
L-Type Ca2+ Channel = settings: Table S2; cited from earlier work
hERG = hERG (Homo sapiens, UniProt Q12809); assay: hERG IC50 of Table 1 / Table S2 (method not assigned); assay type: cell-based; settings: human; n=4 assays
MAO A = molecular target: T2, MAO A (Homo sapiens, UniProt P21397); assay: MAO A inhibition (Table S2); assay type: biochemical; settings: 10 μM
T2 sequence (P21397 1-527): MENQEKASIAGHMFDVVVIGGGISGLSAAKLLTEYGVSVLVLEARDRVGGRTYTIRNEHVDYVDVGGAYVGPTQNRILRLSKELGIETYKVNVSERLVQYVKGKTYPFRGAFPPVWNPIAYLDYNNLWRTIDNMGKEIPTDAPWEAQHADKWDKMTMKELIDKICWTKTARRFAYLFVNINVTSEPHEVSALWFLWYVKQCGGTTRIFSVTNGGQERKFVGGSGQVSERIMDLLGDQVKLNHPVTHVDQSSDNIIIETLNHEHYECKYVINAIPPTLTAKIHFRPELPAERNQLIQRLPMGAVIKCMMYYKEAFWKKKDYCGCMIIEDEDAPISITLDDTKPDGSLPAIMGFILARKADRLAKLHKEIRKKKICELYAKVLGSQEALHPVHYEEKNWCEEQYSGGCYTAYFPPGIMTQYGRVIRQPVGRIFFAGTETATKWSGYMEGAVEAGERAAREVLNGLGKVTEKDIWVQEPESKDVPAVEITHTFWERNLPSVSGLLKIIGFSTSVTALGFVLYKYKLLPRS

MAO B = molecular target: T3, MAO B (Homo sapiens, UniProt P27338); assay: MAO B inhibition (Table S2); assay type: biochemical; settings: 10 μM
T3 sequence (P27338 1-520): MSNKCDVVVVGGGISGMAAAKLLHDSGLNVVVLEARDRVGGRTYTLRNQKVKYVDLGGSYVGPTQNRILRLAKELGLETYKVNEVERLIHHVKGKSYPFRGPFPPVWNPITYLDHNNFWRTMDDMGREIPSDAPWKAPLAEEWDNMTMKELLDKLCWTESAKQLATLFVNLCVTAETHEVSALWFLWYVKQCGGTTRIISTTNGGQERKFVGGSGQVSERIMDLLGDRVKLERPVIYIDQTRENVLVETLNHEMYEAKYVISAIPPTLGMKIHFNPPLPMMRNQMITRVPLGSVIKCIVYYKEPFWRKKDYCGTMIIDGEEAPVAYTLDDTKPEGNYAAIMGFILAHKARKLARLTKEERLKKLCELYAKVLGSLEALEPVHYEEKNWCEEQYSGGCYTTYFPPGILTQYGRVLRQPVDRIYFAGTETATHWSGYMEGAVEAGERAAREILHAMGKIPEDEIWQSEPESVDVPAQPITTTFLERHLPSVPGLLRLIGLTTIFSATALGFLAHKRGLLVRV

NCX [4] = system: NCX; parameters: method as in ref 4 (a number printed in a supplementary file, which may have a reference list of its own: not looked up in the article's list); settings: CCL39 fibroblast, cited from earlier work

hERG, sequence (Q12809 whole entry): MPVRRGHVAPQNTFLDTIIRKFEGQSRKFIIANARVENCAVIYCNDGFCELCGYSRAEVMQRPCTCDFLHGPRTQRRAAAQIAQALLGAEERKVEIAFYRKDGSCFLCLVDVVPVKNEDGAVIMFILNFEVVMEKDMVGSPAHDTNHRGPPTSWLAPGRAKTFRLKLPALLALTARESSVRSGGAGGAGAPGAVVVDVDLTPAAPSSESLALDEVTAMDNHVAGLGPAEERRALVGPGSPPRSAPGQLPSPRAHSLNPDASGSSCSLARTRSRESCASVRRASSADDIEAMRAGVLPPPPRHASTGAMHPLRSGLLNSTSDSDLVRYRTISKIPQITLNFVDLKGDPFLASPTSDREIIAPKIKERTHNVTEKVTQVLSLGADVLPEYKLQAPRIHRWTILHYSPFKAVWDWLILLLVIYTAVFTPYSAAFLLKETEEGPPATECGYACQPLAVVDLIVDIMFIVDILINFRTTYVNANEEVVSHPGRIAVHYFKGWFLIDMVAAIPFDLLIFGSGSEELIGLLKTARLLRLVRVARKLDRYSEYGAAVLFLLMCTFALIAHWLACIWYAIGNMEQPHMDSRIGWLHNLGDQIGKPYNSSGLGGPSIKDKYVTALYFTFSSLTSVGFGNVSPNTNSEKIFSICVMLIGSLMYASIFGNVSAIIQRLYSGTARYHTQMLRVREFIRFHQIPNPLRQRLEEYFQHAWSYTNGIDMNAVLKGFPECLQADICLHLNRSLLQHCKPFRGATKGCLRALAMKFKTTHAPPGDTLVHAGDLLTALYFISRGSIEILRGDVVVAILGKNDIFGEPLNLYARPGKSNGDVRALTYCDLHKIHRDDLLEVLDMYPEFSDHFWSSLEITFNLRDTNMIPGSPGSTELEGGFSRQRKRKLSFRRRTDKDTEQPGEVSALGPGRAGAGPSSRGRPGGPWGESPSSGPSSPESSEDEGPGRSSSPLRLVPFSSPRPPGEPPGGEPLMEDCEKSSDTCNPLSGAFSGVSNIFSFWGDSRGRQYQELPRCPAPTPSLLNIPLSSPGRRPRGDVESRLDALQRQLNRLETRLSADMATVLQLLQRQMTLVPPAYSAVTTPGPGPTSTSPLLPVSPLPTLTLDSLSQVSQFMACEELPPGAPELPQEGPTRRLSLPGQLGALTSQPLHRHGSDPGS

| IC50 (human NCX 1.1) [nM] | IC50 (hNCX1; HEK293, forward mode, Table S2, read-out: hNCX1-HEK IC50) [nM] | IC50 (hNCX1; HEK293, text, read-out: IC50 hNCX1 (forward mode)) [nM] | solubility (Solubility; phosphate buffer, pH 7.4, aqueous buffer, read-out: Solubility class) [µg/mL] | inhibition at 10 µM (MAO A) [%] | inhibition at 10 µM (MAO B) [%] | Structure (SMILES) | Solubility class (Solubility) | IC50 (NCX [1]; read-out: IC50 NCX forward) [nM] | IC50 (NCX [1]; read-out: IC50 NCX reverse) [nM] | IC50 (NCX [2]; read-out: IC50 NCX forward) [nM] | IC50 (NCX [2]; read-out: IC50 NCX reverse) [nM] | IC50 (NCX [3]; read-out: IC50 NCX forward) [nM] | IC50 (NCX [3]; read-out: IC50 NCX reverse) [nM] | IC50 (L-Type Ca2+ Channel) [nM] | IC50 (hERG) [nM] | IC50 (NCX [4]; read-out: IC50 NCX forward) [nM] | IC50 (NCX [4]; read-out: IC50 NCX reverse) [nM] |
| --- | --- | --- | --- | --- | --- | --- | --- | --- | --- | --- | --- | --- | --- | --- | --- | --- | --- |
| 3790 | 3590 | – | – | – | – | N=C(N)SCCc1ccc(OCc2ccc([N+](=O)[O-])cc2)cc1 [KB-R7943] | Moderate (moderate solubility between 10-100 µg/ml) | 120 | 61 | 243 | 309 | – | – | – | – | – | – |
| – | – | – | – | – | – | Nc1cccc(CNC(=O)c2ccc(Oc3ccc(OCc4cccc(F)c4)cc3)nc2)c1 [YM-244769] | – | – | – | – | – | 68 | 96 | > 3000 | – | – | – |
| 16000 | – | > 100000 | 10 to 100 (≈ 24.8 to 248 µM) | 38 | 80 | CCOC(=O)C1CSC(Cc2ccc(OCc3ccc([N+](=O)[O-])cc3)cc2)N1 (stereo not drawn) [SN‐6, 2‐[4‐(4‐nitrobenzyloxy)benzyl]thiazolidine‐4‐carboxylic acid ethyl ester] | – | – | – | – | – | – | – | – | 102000 | > 30000 | 29000 |
